Read-outs that look alike come from different tables or passages of the source.
Experiments:
[1] = Multi-component pharmacokinetics of AAs in rats after oral administration of AF and HAF extracts (HPLC-MS/MS of plasma); design: species or system Sprague–Dawley (SD) rats; conditions: Sprague-Dawley, rat, in vivo
Description: An aliquot (100 μl) of rat plasma was spiked with 10.0 μL IS, and vortexed with 300 μL acetic ether for 10 s before the supernatant was transferred into centrifuge tube. The extraction was repeated with 200 μL acetic ether. The combined organic layer was evaporated to dryness under a gentle stream of nitrogen at RT. The residue was resolved in 100 μL methanol and centrifuged at 15,800 × g for 10 min. The supernatant was used for HPLC-MS/MS analysis.
Chromatographic separation was performed by an Acquity C18 column (4.6 × 100 mm,3.5 μm) (Agilent Technologies, USA). The mobile phase was composed of water (containing 10 mM ammonium formate and formic acid, pH 3.0) (solvent A) and ACN (solvent B). The gradient profile of B was: 0–10 min, 35–38%; 10–11 min, 38– 60%; 11–17 min, 60–35%B; 17–18 min, 35%. The flow rate was kept at 0.5 mL/min. The column oven was set at 30 °C and the injection volume was 10 μL.
The mass spectrometer was operated in the positive ion electrospray mode with multiple reaction monitoring (MRM). The optimal MS parameters were set at the following parameters: a desolvation gas temperature of 450 °C, desolvation gas flow of 10 L/min, a nebulizer gas of 40 psi and a capillary voltage of 4000 V. The mass spectrometry conditions of AA I, AA II, AA C, AA D, 7-OH AA I and IS are summarized in Additional file 1: Table S1.
The rats were randomly divided into 6 groups (low, middle and high doses of AF and HAF; n = 6). After a week of acclimation, the animals were fasted for 12 h with free access to water. Then, AF and HAF extracts were administered to the rats. The extracts were suspended in 0.5% CMC–Na solution, and the oral doses (according to AA I in the extracts) were 3.0 mg/kg, 8.0 mg/kg and 15.0 mg/kg, respectively.
Blood samples were collected from the ocular vein using dried heparinized tubes at 0, 0.083, 0.17, 0.33, 0.50, 0.67, 0.83, 1, 2, 4, 6, 8, 10, 12 and 24 h from the start. The animals received fluid replacement (sterile isotonic saline) after every two samplings since the fifth collecting. The samples were then immediately centrifuged at 3100 × g for 10 min. The plasma obtained was frozen and stored at –20 °C until analysis.
All statistical analyses were performed using the SPSS 11.0 software (Chicago, USA). P values <0.05 were considered statistically significant. Pharmacokinetic analysis was performed using the proprietary DAS 3.0 software (Mathematical Pharmacology Professional Committee of China, Shanghai, China).
After the oral administration of AF and HAF extracts, rat plasma samples were prepared and analyzed as described above. Five main AAs can be detected in rat blood with the proposed HPLC-MS/MS method. The mean pharmacokinetic parameters of five AAs in AF and HAF are summarized in Tables 4, 5 and Additional files 5, 6, 7: Tables S4-S6. The maximum concentration (C max) was the experimentally-observed value. The other pharmacokinetic parameters of the five analytes were fitted by DAS 3.0 software.

[2] = Stability of AAs in rat plasma (QC samples, HPLC-MS/MS); format: in vitro ADME; conditions: n = 5; for Short-term stability (RSD/%): fresh rat plasma at room temperature for 24 h before sample preparation; for Post-preparation stability (RSD/%): prepared rat plasma samples at room temperature for 24 h; for Long-term stability (RSD/%): rat plasma stored at –20 °C for 14 days; for Freeze-thaw stability (RSD/%): rat plasma, three freeze-thaw cycles (–20 °C 24 h, thawed at room temperature)
Description: The QC samples were assayed under several different conditions to evaluate the stability of AAs in rat plasma. The freeze-thaw stability of the analyte was determined over three freeze-thaw cycles. In each freeze-thaw cycle, the samples were frozen and stored at –20 °C for 24 h, then thawed at room temperature. To evaluate the long-term stability of AAs, the plasma samples were stored at –20 °C for 14 days. For the short-term stability, fresh plasma samples were kept at room temperature for 24 h before the sample preparation. After keeping the samples at room temperature for 24 h, post-preparation stability was tested. Stability was evaluated by comparing the mean concentration of the stored samples with the mean concentration of those prepared freshly. The stability data were acceptable when the bias was within ±15% of the actual value.

[3] = 3 mg/kg, AF extract, low dose (3.0 mg/kg as AA I), analyte dose mg/kg: AA I 3.0, AA II 0.21, AA C 1.42, AA D 1.60, 7-OH AA I 2.33, n = 6
[4] = 3 mg/kg, HAF extract, low dose (3.0 mg/kg as AA I), analyte dose mg/kg: AA I 3.0, AA II 0.26, AA C 1.53, AA D 1.51, 7-OH AA I 2.48, n = 6
[5] = 8 mg/kg, AF extract, mid dose (8.0 mg/kg as AA I), analyte dose mg/kg: AA I 8.0, AA II 0.56, AA C 3.78, AA D 4.26, 7-OH AA I 6.22, n = 6
[6] = 8 mg/kg, HAF extract, mid dose (8.0 mg/kg as AA I), analyte dose mg/kg: AA I 8.0, AA II 0.69, AA C 4.09, AA D 4.03, 7-OH AA I 6.62, n = 6
[7] = 15 mg/kg, AF extract, high dose (15.0 mg/kg as AA I), analyte dose mg/kg: AA I 15.0, AA II 1.05, AA C 7.09, AA D 8.00, 7-OH AA I 11.66, n = 6
[8] = 15 mg/kg, HAF extract, high dose (15.0 mg/kg as AA I), analyte dose mg/kg: AA I 15.0, AA II 1.29, AA C 7.66, AA D 7.56, 7-OH AA I 12.41, n = 6
[9] = high QC conc ng/mL: AA I 1830, AA II 3200, AA C 2980, AA D 3680, 7-OH AA I 3280
[10] = low QC conc ng/mL: AA I 1.83, AA II 8.00, AA C 186.3, AA D 36.8, 7-OH AA I 82.0
[11] = middle QC conc ng/mL: AA I 457.5, AA II 400, AA C 372.5, AA D 460, 7-OH AA I 410

COc1c(O)ccc2c1cc([N+](=O)[O-])c1c(C(=O)O)cc3c(c12)OCO3 [7-OH AA I]
AUC(0-inf) [1, 3]: 602 ng·h/mL | Cmax [1, 3]: 214 ng/mL | Tmax [1, 3]: 0.64 h | CL/F ([1]; 3 mg/kg, AF extract, low dose (3.0 mg/kg as AA I), analyte dose mg/kg: AA I 3.0, AA II 0.21, AA C 1.42, AA D 1.60, 7-OH AA I 2.33, n = 6, read-out: CLz/F (converted)): 71.5 mL/min/kg | Vd/F ([1]; 3 mg/kg, AF extract, low dose (3.0 mg/kg as AA I), analyte dose mg/kg: AA I 3.0, AA II 0.21, AA C 1.42, AA D 1.60, 7-OH AA I 2.33, n = 6, read-out: Vz/F): 24.7 L/kg | half-life ([1]; 3 mg/kg, AF extract, low dose (3.0 mg/kg as AA I), analyte dose mg/kg: AA I 3.0, AA II 0.21, AA C 1.42, AA D 1.60, 7-OH AA I 2.33, n = 6, read-out: t 1/2z (converted)): 3.84 h | AUC(0-inf) [1, 4]: 620 ng·h/mL | Cmax [1, 4]: 216 ng/mL | Tmax [1, 4]: 0.5 h | CL/F ([1]; 3 mg/kg, HAF extract, low dose (3.0 mg/kg as AA I), analyte dose mg/kg: AA I 3.0, AA II 0.26, AA C 1.53, AA D 1.51, 7-OH AA I 2.48, n = 6, read-out: CLz/F (converted)): 81.3 mL/min/kg | Vd/F ([1]; 3 mg/kg, HAF extract, low dose (3.0 mg/kg as AA I), analyte dose mg/kg: AA I 3.0, AA II 0.26, AA C 1.53, AA D 1.51, 7-OH AA I 2.48, n = 6, read-out: Vz/F): 17.5 L/kg | half-life ([1]; 3 mg/kg, HAF extract, low dose (3.0 mg/kg as AA I), analyte dose mg/kg: AA I 3.0, AA II 0.26, AA C 1.53, AA D 1.51, 7-OH AA I 2.48, n = 6, read-out: t 1/2z (converted)): 2.75 h | AUC(0-inf) [1, 5]: 1160 ng·h/mL | Cmax [1, 5]: 404 ng/mL | Tmax [1, 5]: 0.72 h | CL/F ([1]; 8 mg/kg, AF extract, mid dose (8.0 mg/kg as AA I), analyte dose mg/kg: AA I 8.0, AA II 0.56, AA C 3.78, AA D 4.26, 7-OH AA I 6.22, n = 6, read-out: CLz/F (converted)): 92.5 mL/min/kg | Vd/F ([1]; 8 mg/kg, AF extract, mid dose (8.0 mg/kg as AA I), analyte dose mg/kg: AA I 8.0, AA II 0.56, AA C 3.78, AA D 4.26, 7-OH AA I 6.22, n = 6, read-out: Vz/F): 26.1 L/kg | half-life ([1]; 8 mg/kg, AF extract, mid dose (8.0 mg/kg as AA I), analyte dose mg/kg: AA I 8.0, AA II 0.56, AA C 3.78, AA D 4.26, 7-OH AA I 6.22, n = 6, read-out: t 1/2z (converted)): 3.25 h | AUC(0-inf) [1, 6]: 991 ng·h/mL | Cmax [1, 6]: 366 ng/mL | Tmax [1, 6]: 0.67 h | CL/F ([1]; 8 mg/kg, HAF extract, mid dose (8.0 mg/kg as AA I), analyte dose mg/kg: AA I 8.0, AA II 0.69, AA C 4.09, AA D 4.03, 7-OH AA I 6.62, n = 6, read-out: CLz/F (converted)): 109 mL/min/kg | Vd/F ([1]; 8 mg/kg, HAF extract, mid dose (8.0 mg/kg as AA I), analyte dose mg/kg: AA I 8.0, AA II 0.69, AA C 4.09, AA D 4.03, 7-OH AA I 6.62, n = 6, read-out: Vz/F): 25.4 L/kg | half-life ([1]; 8 mg/kg, HAF extract, mid dose (8.0 mg/kg as AA I), analyte dose mg/kg: AA I 8.0, AA II 0.69, AA C 4.09, AA D 4.03, 7-OH AA I 6.62, n = 6, read-out: t 1/2z (converted)): 2.55 h | AUC(0-inf) [1, 7]: 1320 ng·h/mL | Cmax [1, 7]: 566 ng/mL | Tmax [1, 7]: 0.5 h | CL/F ([1]; 15 mg/kg, AF extract, high dose (15.0 mg/kg as AA I), analyte dose mg/kg: AA I 15.0, AA II 1.05, AA C 7.09, AA D 8.00, 7-OH AA I 11.66, n = 6, read-out: CLz/F (converted)): 174 mL/min/kg | Vd/F ([1]; 15 mg/kg, AF extract, high dose (15.0 mg/kg as AA I), analyte dose mg/kg: AA I 15.0, AA II 1.05, AA C 7.09, AA D 8.00, 7-OH AA I 11.66, n = 6, read-out: Vz/F): 52.3 L/kg | half-life ([1]; 15 mg/kg, AF extract, high dose (15.0 mg/kg as AA I), analyte dose mg/kg: AA I 15.0, AA II 1.05, AA C 7.09, AA D 8.00, 7-OH AA I 11.66, n = 6, read-out: t 1/2z (converted)): 3.45 h | AUC(0-inf) [1, 8]: 1130 ng·h/mL | Cmax [1, 8]: 531 ng/mL | Tmax [1, 8]: 0.53 h | CL/F ([1]; 15 mg/kg, HAF extract, high dose (15.0 mg/kg as AA I), analyte dose mg/kg: AA I 15.0, AA II 1.29, AA C 7.66, AA D 7.56, 7-OH AA I 12.41, n = 6, read-out: CLz/F (converted)): 207 mL/min/kg | Vd/F ([1]; 15 mg/kg, HAF extract, high dose (15.0 mg/kg as AA I), analyte dose mg/kg: AA I 15.0, AA II 1.29, AA C 7.66, AA D 7.56, 7-OH AA I 12.41, n = 6, read-out: Vz/F): 47.4 L/kg | half-life ([1]; 15 mg/kg, HAF extract, high dose (15.0 mg/kg as AA I), analyte dose mg/kg: AA I 15.0, AA II 1.29, AA C 7.66, AA D 7.56, 7-OH AA I 12.41, n = 6, read-out: t 1/2z (converted)): 2.94 h | Short-term stability (RSD/%) [2, 9]: 9.1% | Short-term stability (RSD/%) [2, 10]: 7.1% | Short-term stability (RSD/%) [2, 11]: 11.8% | Post-preparation stability (RSD/%) [2, 9]: 6.7% | Post-preparation stability (RSD/%) [2, 10]: 5.1% | Post-preparation stability (RSD/%) [2, 11]: 4.2% | Long-term stability (RSD/%) [2, 9]: 11.1% | Long-term stability (RSD/%) [2, 10]: 2.0% | Long-term stability (RSD/%) [2, 11]: 6.4% | Freeze-thaw stability (RSD/%) [2, 9]: 13.4% | Freeze-thaw stability (RSD/%) [2, 10]: 6.2% | Freeze-thaw stability (RSD/%) [2, 11]: 12.3%
